Source: paper PMC2096555 (Purinergic Signalling, 2005)
Where “and” joins values, the source holds several entries; their conditions need not be identical. Identical values can stand only once. Blank lines part the entries; values can stand above or below the molecule they belong to.

Key:
[1] = molecular target: T1, rat NTPDase1 (Rattus norvegicus, UniProt P97687); type: biochemical
T1 sequence (P97687 1-511): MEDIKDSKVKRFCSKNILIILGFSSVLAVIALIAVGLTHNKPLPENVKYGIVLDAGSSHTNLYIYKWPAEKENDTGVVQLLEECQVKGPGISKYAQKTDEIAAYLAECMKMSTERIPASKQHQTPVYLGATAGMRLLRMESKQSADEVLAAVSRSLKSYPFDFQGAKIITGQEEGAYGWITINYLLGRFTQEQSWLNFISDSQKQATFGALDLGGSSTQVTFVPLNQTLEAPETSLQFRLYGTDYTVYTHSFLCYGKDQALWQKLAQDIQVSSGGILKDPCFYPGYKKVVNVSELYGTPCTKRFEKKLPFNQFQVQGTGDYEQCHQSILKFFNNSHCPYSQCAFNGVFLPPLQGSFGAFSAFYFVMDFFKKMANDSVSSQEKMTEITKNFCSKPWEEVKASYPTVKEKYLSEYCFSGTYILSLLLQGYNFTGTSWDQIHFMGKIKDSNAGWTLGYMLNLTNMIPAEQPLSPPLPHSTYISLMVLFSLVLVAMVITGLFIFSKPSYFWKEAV

[2] = tested on: mouse NTPDase3; settings: read-out: Reported Km mouse NTPDase3; ATP; cited from earlier work
[3] = tested on: human NTPDase3; settings: read-out: Reported Km human NTPDase3; ATP; respectively ref 32, 40; cited from earlier work
[4] = tested on: human NTPDase1; settings: read-out: Reported Km human NTPDase1; ATP; cited from earlier work
[5] = tested on: mouse NTPDase2; settings: read-out: Reported Km mouse NTPDase2; ATP; no reference given; cited from earlier work
[6] = molecular target: T2, rat NTPDase2 (Rattus norvegicus, UniProt O35795); type: biochemical
T2 sequence (O35795 1-495): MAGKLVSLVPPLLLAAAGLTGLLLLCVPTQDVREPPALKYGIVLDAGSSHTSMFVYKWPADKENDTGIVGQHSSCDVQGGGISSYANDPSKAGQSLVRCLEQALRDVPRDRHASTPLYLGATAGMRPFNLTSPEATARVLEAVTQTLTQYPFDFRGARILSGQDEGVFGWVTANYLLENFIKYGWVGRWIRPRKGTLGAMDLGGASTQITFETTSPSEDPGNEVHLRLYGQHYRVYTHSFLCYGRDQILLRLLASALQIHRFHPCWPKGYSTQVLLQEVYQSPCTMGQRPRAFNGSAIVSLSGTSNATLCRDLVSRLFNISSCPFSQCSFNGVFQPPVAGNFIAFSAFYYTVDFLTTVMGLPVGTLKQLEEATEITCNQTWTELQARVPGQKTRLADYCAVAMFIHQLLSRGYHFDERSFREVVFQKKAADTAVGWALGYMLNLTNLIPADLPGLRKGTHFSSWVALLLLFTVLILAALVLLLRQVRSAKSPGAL

[7] = tested on: mouse NTPDase1; settings: read-out: Reported Km mouse NTPDase1; ATP; cited from earlier work
[8] = tested on: recombinant rat NTPDase1; settings: read-out: Reported Km recombinant rat NTPDase1; ATP; cited from earlier work
[9] = molecular target: T3, rat NTPDase3 (Rattus norvegicus, UniProt A6I415); type: biochemical
T3 sequence (A6I415 1-529): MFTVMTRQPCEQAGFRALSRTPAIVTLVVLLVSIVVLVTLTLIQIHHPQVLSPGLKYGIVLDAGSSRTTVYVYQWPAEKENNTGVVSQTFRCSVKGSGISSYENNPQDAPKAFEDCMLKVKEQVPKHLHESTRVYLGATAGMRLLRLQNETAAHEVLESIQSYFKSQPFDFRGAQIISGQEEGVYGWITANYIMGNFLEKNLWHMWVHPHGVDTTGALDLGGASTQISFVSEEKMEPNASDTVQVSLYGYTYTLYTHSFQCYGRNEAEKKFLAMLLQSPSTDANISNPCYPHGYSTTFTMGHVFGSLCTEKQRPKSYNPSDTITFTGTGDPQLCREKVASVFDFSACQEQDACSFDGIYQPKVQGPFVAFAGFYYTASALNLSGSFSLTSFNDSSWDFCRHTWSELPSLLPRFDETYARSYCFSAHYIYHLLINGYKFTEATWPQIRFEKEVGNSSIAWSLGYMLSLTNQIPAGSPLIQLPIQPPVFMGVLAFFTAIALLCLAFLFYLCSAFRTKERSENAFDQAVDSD

[10] = molecular target: T1, rat NTPDase1; type: biochemical; remark: listed apart in the source
[11] = molecular target: T3, rat NTPDase3; type: biochemical; remark: listed apart in the source
[12] = tested on: rat superior cervical ganglionic cells; settings: at 10 µM concentration; cited from earlier work
[13] = molecular target: T2, rat NTPDase2; type: biochemical; remark: listed apart in the source
[14] = substrate ATP, membrane preparation

- Km ([1]; read-out: Km ± SEM NTPDase1, substrate ATP 10-1000 µM, product AMP): 76 ± 12 µM
- Vmax ± SEM NTPDase1 [1, 14]: 0.023 ± 0.002 μmol/min/mg protein
- Km ([6]; read-out: Km ± SEM NTPDase2, substrate ATP 25-1000 µM, product ADP): 203 ± 8 µM
- Vmax ± SEM NTPDase2 [6, 14]: 0.021 ± 0.002 μmol/min/mg protein
- Km ([9]; read-out: Km ± SEM NTPDase3, substrate ATP 25-1000 µM, product ADP): 311 ± 4 µM
- Vmax ± SEM NTPDase3 [9, 14]: 0.010 ± 0.001 μmol/min/mg protein
SMILES: Nc1ncnc2c1ncn2[C@@H]1O[C@H](COP(=O)(O)OP(=O)(O)OP(=O)(O)O)[C@@H](O)[C@H]1O [ATP]
- Km [2]: 11 µM
- Km [3]: 75 µM and 128 µM
- Km [4]: 17 µM
- Km [5]: 37 µM
- Km [7]: 12 µM
- Km [8]: 75 µM

- Ki [10]: > 1 mM
- Ki [11]: > 1 mM
- Ki [13]: > 1 mM
SMILES: OCCN(CCO)c1nc(N2CCCCC2)c2nc(N(CCO)CCO)nc(N3CCCCC3)c2n1 [Dipyridamole, dipyridamole]
- inhibition of ATP hydrolysis [12]: effective inhibitor

- Ki for NTPDase1 relative to NTPDase2 ([10]; ratio of Ki values): five fold higher
SMILES: Cc1ccc(C(=O)Nc2ccc(S(=O)(=O)O)c3cc(S(=O)(=O)O)cc(S(=O)(=O)O)c23)cc1NC(=O)c1cccc(NC(=O)Nc2cccc(C(=O)Nc3cc(C(=O)Nc4ccc(S(=O)(=O)O)c5cc(S(=O)(=O)O)cc(S(=O)(=O)O)c45)ccc3C)c2)c1 [Suramin, suramin]
